{"source": "patent EP3046573B1", "about": "“AMYLIN ANALOGUES” (Zealand Pharma A/S, priority 2013, dated 2015)", "key": {"[1]": {"assay": "Pharmacokinetics of test compounds in mice", "assay_type": "in vivo", "settings": "female, NMRI, mouse, plasma; for bioavailability: AUCinf (sc) / AUCinf (iv) x 100, 100 nmol/kg (Pramlintide 400 nmol/kg); for half-life: 100 nmol/kg (Pramlintide 400 nmol/kg)", "protocol": "NMRI mice (supplier: Taconic; females with a body weight of approximately 25 g) were given either a single subcutaneous (sc) bolus or a single intravenous (iv) bolus of each peptide to be tested.\nFollowing sc administration of test peptide (Compound 176, 1 or 18) (100 nmol/kg), blood samples were drawn 0.5, 2, 4, 8, 18, 40 and 56 hours post-dosing by eye bleeding. Following iv administration of Compound 176, 1 or 18 (100 nmol/kg), blood samples were drawn 0.08, 0.17, 0.5, 2, 8, 18 and 30 hours post-dosing by eye bleeding. The dosing vehicle used for each test peptide was a mannitol-containing histidine buffer (pH 7.0).\nPramlintide (400 nmol/kg) was also administered as a single sc bolus or as a single iv bolus to mice. Following sc administration, blood samples were drawn 5, 15, 20, 30, 60, 120, 180 and 240 minutes post-dosing by sublingual bleeding. Following iv administration, blood samples were drawn 5, 10, 15, 30, 60, 120, 180, and 240 minutes post-dosing by sublingual bleeding. The dosing vehicle used for Pramlintide was a mannitol-containing acetate buffer (pH 4.0).\nBlood samples were taken from two mice at each time point, i.e. 14-16 mice were included for each compound. The mice were euthanized immediately after blood sampling by cervical dislocation. Plasma samples were analyzed after solid-phase extraction (SPE) by liquid chromatography mass spectrometry (LC-MS/MS). Mean plasma concentrations were used for calculation of the pharmacokinetic parameters using the non-compartmental approach in Phoenix WinNonlin 6.3.\nPlasma terminal elimination half-life (t½) was determined as In(2)/λz, where λz is the magnitude of the slope of the log linear regression of the log concentration versus time profile during the terminal phase.\nBioavailability was determined as AUCinf (sc) / AUCinf (iv) x 100, where AUCinf is the area under the plasma concentration - time curve extrapolated to infinity (AUCinf = AUClast + Clast/λz, where Clast is the last observed plasma concentration)."}, "[2]": {"assay": "Assessment of chemical stability: normalized purity by RP-HPLC after incubation at 40 °C", "assay_type": "physicochemical", "settings": "normalized purity (T=0 set to 100), 0.2 mg/ml", "in_short": "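Peptides at 0.2 mg/ml in water adjusted to pH 4, 7.5 or 9, held at 40 °C for 7 days. Purity by RP-HPLC (C8/ammonium formate or C18/TFA gradients), UV 220 nm, as main-peak area-%; normalized to T=0 set as 100 for each pH.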"}, "[3]": {"assay": "Pharmacokinetic (PK) profiling in rats", "assay_type": "in vivo", "settings": "male, Sprague Dawley, rat, plasma, single sc bolus, 100 nmol/kg (18, NN96), 20 nmol/kg (72, 76), 30 nmol/kg (73, 82, 118, 162, 166, 172)", "protocol": "Sprague Dawley male rats were given a single subcutaneous (sc) bolus of each peptide to be tested at doses as specified below..\nStudy A: Following the administration of a 100 nmol/kg dose of a test peptide of the invention (Compound 18) and a comparison pramlintide analogue NN96 (see Example 5, above), respectively, blood samples were drawn from the tail vein at 0.5, 3, 8, 15, 36, 60 and 81 hours post-dosing. 4 rats were used (2 rats per compound). The rats were euthanized immediately after the last blood sampling by overdose of O2/CO2.\nStudy B: 20 nmol/kg doses of Compound 72 and Compound 76, respectively, of the invention were administered. Blood samples were drawn by sublingual bleeding prior to dosing and at 2, 6, 12, 24, 48, 72 and 96 hours after dosing. 4 rats were used (2 rats per compound). The rats were euthanized immediately after the last blood sampling by overdose of O2/CO2.\nStudy C: 30 nmol/kg doses of Compound 73, Compound 82 and Compound 118, respectively, of the invention were administered. Blood samples were drawn from the tail vein prior to dosing and at 24, 48, 72 and 96 hours after dosing. Blood samples were taken from two rats at each time point, and only 2 blood samples were drawn from each rat, i.e. 8 rats were used for each compound. The rats were euthanized immediately after the last blood sampling by concussion and cervical dislocation.\nStudy D: 30 nmol/kg doses of Compound 162, Compound 166 and Compound 172 were administered. Blood samples were drawn from the tail vein prior to dosing and at 24, 48, 72, 96 and 168 hours after dosing. Blood samples were taken from two rats at each time point, and only 2 blood samples were drawn from each rat, i.e. 10 rats were used for each compound. The rats were euthanized immediately after the last blood sampling by concussion and cervical dislocation.\nThe dosing vehicle used for each test peptide was a mannitol-containing histidine buffer (pH 7.0). Plasma samples were analyzed after precipitation with ethanol by liquid chromatography mass spectrometry (LC-MS/MS). Mean plasma concentrations were used for calculation of the pharmacokinetic parameters using the non-compartmental approach in Phoenix WinNonlin 6.3.\nPlasma terminal elimination half-life (t½) was determined as In(2)/λz, where λz is the magnitude of the slope of the log linear regression of the log concentration versus time profile during the terminal phase. Apparent clearance (CL/F) was determined as dose/AUCinf (sc), where AUCinf is the area under the plasma concentration vs. time curve extrapolated to infinity (AUCinf = AUClast + Clast/λz, where Clast is the last observed plasma concentration)."}, "[4]": {"settings": "single iv bolus, read-out: t½ (hours) iv (converted)"}, "[5]": {"settings": "single sc bolus, read-out: t½ (hours) sc (converted)"}}, "note": "Numbered stars: 1 amine (or outer) side, 2 acyl side, 3 side chain; on linkers, the order of the positions; unused ones are H or OH. Bridge positions count the residues as written; N and C are the ends. Square brackets hold non-standard residues; d marks the D form. Peptide text beside a SMILES is read from it. * marks the point of attachment. C20 diacid = O=C(O)CCCCCCCCCCCCCCCCCCC(=O)*; γGlu = O=C(O)[C@H](CCC(=O)[*:2])N[*:1]; NMeI = CC[C@H](C)[C@H](NC)C(=O)O; Sar = CNCC(=O)O"}
{"molecule": "CC[C@H](C)[C@@H](C(=O)N[C@@H](CC(C)C)C(=O)N[C@@H](CO)C(=O)N[C@@H](CO)C(=O)N[C@H](C(=O)N[C@@H](CC(N)=O)C(=O)N[C@H](C(=O)NCC(=O)N[C@@H](CO)C(=O)N[C@@H](CC(N)=O)C(=O)N[C@H](C(=O)N1CCC[C@H]1C(N)=O)[C@@H](C)O)C(C)C)[C@@H](C)O)N(C)C(=O)[C@H](C)NC(=O)CN(C)C(=O)[C@H](Cc1ccccc1)NC(=O)[C@H](CC(N)=O)NC(=O)[C@H](CC(N)=O)NC(=O)[C@H](CO)NC(=O)[C@H](CO)NC(=O)[C@H](Cc1c[nH]cn1)NC(=O)[C@H](Cc1c[nH]cn1)NC(=O)[C@H](CC(C)C)NC(=O)[C@H](Cc1ccccc1)NC(=O)[C@H](CCC(=O)O)NC(=O)[C@H](C)NC(=O)[C@H](CC(C)C)NC(=O)[C@H](CCCNC(=N)N)NC(=O)[C@H](CCC(N)=O)NC(=O)[C@@H](NC(=O)[C@H](C)NC(=O)[C@@H]1CSSC[C@H](NC(=O)[C@H](CCCNC(=N)N)NC(=O)CC[C@H](NC(=O)CCCCCCCCCCCCCCCCCCC(=O)O)C(=O)O)C(=O)N[C@@H](CC(N)=O)C(=O)N[C@@H]([C@@H](C)O)C(=O)N[C@@H](C)C(=O)N[C@@H]([C@@H](C)O)C(=O)N1)[C@@H](C)O", "note": "[Compound 1, [19CD]-isoGlu-RC()NTATC()ATQRLAEFLHHSSNNF-Gly(Me)-A-Ile(Me)-LSSTNVGSNTP-NH2] ({C20 diacid-γGlu}-RCNTATCATQRLAEFLHHSSNNF[Sar]A[NMeI]LSSTNVGSNTP-NH2; disulfide 2-7)", "values": [{"measurement": "bioavailability", "setting": "[1]", "value": 77, "unit": "%"}, {"measurement": "half-life", "setting": "[1]; [4]", "value": 32.9, "unit": "h"}, {"measurement": "half-life", "setting": "[1]; [5]", "value": 34.6, "unit": "h"}, {"measurement": "Chem. stability; 7 days, 40°C pH 4", "setting": "[2]; pH 4, 7 days", "value": 89, "unit": "area-%"}, {"measurement": "Chem. stability; 7 days, 40°C pH 7.5", "setting": "[2]; pH 7.5, 7 days", "value": 64, "unit": "area-%"}, {"measurement": "Chem. stability; 7 days, 40°C pH 9", "setting": "[2]; pH 9, 7 days", "value": 56, "unit": "area-%"}]}
{"molecule": "CC[C@H](C)[C@@H](C(=O)N[C@@H](CC(C)C)C(=O)N1CCC[C@H]1C(=O)N1CCC[C@H]1C(=O)N[C@H](C(=O)N[C@@H](CC(N)=O)C(=O)N[C@H](C(=O)NCC(=O)N[C@@H](CO)C(=O)N[C@@H](CC(N)=O)C(=O)N[C@H](C(=O)N1CCC[C@H]1C(N)=O)[C@@H](C)O)C(C)C)[C@@H](C)O)N(C)C(=O)CN(C)C(=O)[C@H](Cc1ccccc1)NC(=O)[C@H](CC(N)=O)NC(=O)[C@H](CC(N)=O)NC(=O)[C@H](CO)NC(=O)[C@H](CO)NC(=O)[C@H](Cc1c[nH]cn1)NC(=O)[C@H](Cc1c[nH]cn1)NC(=O)[C@H](CC(C)C)NC(=O)[C@H](Cc1ccccc1)NC(=O)[C@H](CCC(=O)O)NC(=O)[C@H](C)NC(=O)[C@H](CC(C)C)NC(=O)[C@H](CCCNC(=N)N)NC(=O)[C@H](CCC(N)=O)NC(=O)[C@@H](NC(=O)[C@H](C)NC(=O)[C@@H]1CSSC[C@H](NC(=O)[C@H](CCCNC(=N)N)NC(=O)CC[C@H](NC(=O)CCCCCCCCCCCCCCCCCCC(=O)O)C(=O)O)C(=O)N[C@@H](CC(N)=O)C(=O)N[C@@H]([C@@H](C)O)C(=O)N[C@@H](C)C(=O)N[C@@H]([C@@H](C)O)C(=O)N1)[C@@H](C)O", "note": "[Compound 176, [19CD]-isoGlu-RC()NTATC()ATQRLAEFLHHSSNNF-Gly(Me)-Ile(Me)-LPPTNVGSNTP-NH2] ({C20 diacid-γGlu}-RCNTATCATQRLAEFLHHSSNNF[Sar][NMeI]LPPTNVGSNTP-NH2; disulfide 2-7)", "values": [{"measurement": "bioavailability", "setting": "[1]", "value": 81, "unit": "%"}, {"measurement": "half-life", "setting": "[1]; [4]", "value": 24.4, "unit": "h"}, {"measurement": "half-life", "setting": "[1]; [5]", "value": 23.8, "unit": "h"}]}
{"molecule": "CC[C@H](C)[C@@H](C(=O)N[C@@H](CC(C)C)C(=O)N[C@@H](CO)C(=O)N[C@@H](CO)C(=O)N[C@H](C(=O)N[C@@H](CC(N)=O)C(=O)N[C@H](C(=O)NCC(=O)N[C@@H](CO)C(=O)N[C@@H](CC(N)=O)C(=O)N[C@H](C(=O)N1CCC[C@H]1C(N)=O)[C@@H](C)O)C(C)C)[C@@H](C)O)N(C)C(=O)[C@H](C)NC(=O)CN(C)C(=O)[C@H](Cc1ccccc1)NC(=O)[C@H](CC(N)=O)NC(=O)[C@H](CC(N)=O)NC(=O)[C@H](CO)NC(=O)[C@H](CO)NC(=O)[C@H](CCCNC(=N)N)NC(=O)[C@H](Cc1c[nH]cn1)NC(=O)[C@H](CC(C)C)NC(=O)[C@H](Cc1ccccc1)NC(=O)[C@H](CCC(=O)O)NC(=O)[C@H](C)NC(=O)[C@H](CC(C)C)NC(=O)[C@H](CCCNC(=N)N)NC(=O)[C@H](CCC(N)=O)NC(=O)[C@@H](NC(=O)[C@H](C)NC(=O)[C@@H]1CSSC[C@H](NC(=O)[C@H](CCCNC(=N)N)NC(=O)CC[C@H](NC(=O)CCCCCCCCCCCCCCCCCCC(=O)O)C(=O)O)C(=O)N[C@@H](CC(N)=O)C(=O)N[C@@H]([C@@H](C)O)C(=O)N[C@@H](C)C(=O)N[C@@H]([C@@H](C)O)C(=O)N1)[C@@H](C)O", "note": "[Compound 18, [19CD]-isoGlu-RC()NTATC()ATQRLAEFLHRSSNNF-Gly(Me)-A-Ile(Me)-LSSTNVGSNTP-NH2] ({C20 diacid-γGlu}-RCNTATCATQRLAEFLHRSSNNF[Sar]A[NMeI]LSSTNVGSNTP-NH2; disulfide 2-7)", "values": [{"measurement": "bioavailability", "setting": "[1]", "value": 79, "unit": "%"}, {"measurement": "half-life", "setting": "[1]; [4]", "value": 20.8, "unit": "h"}, {"measurement": "half-life", "setting": "[1]; [5]", "value": 22.8, "unit": "h"}, {"measurement": "CL/F", "setting": "[3]; apparent clearance", "value": 3.48, "unit": "mL/h/kg"}, {"measurement": "half-life", "setting": "[3]; terminal elimination half-life, read-out: t½ (converted)", "value": 37.6, "unit": "h"}]}
